Experimental data from US20230024438A1, “INHIBITORS OF HIF-2ALPHA” (ARCUS BIOSCIENCES, INC., priority 2019, published 2023).

Legend:
HIF-2α = target: T1, HIF-2α (Homo sapiens, UniProt Q99814); experiment: HIF-2α Luciferase Reporter Assay; assay type: cell-based; conditions: HIF-Luc-786-0 cells, 20 hours incubation, luciferase activity; read-out: HIF-2α Luciferase Assay
T1 construct: endogenous in cells; host or cells: 786-O cells (ATCC CRL-1932) stably carrying the Cignal Lenti HIF Luc Reporter
Description: Stable cell lines were generated by transducing 786-O cells (ATCC, CRL-1932) with Cignal Lenti HIF Luc Reporter lentivirus (CLS-007L, Qiagen) according to the manufacturer's guidelines. In brief, 0.3×10^6 786-0 cells were transduced with lentivirus at a Multiplicity of Infection (MOI) of 25 for 24 hours. After transduction, cells were replenished with fresh RPMI 1640 Medium (Cat. No. 11875085, Thermo Fisher,) supplemented with 10% FBS (Cat. No. A3160502, Gibco), 2 mM GlutaMax (Cat. No. 35050-061, Invitrogen) and 100 units of penicillin and 100 μg of streptomycin/mL (Cat. No 15070063, Thermo Fisher) for another 24 hours. Antibiotic selection was performed in cell media containing 4 μg/mL of Puromycin. After 7 days of antibiotic selection, stable pools of surviving cells were expanded and used in a luciferase reporter assay.
On day one, 20 uL of HIF-Luc-786-0 cells in OptiMem (Cat. No. 31985088, Thermo Fisher) were seeded into each well of a 384 well white opaque plate (Corning 3570) and incubated at 37° C. and 5% CO2. Twenty microliters of 2× test compounds in OptiMem were added to cells after 4 hours of incubation. Final assay conditions comprised 20,000 cells per well in 1% DMSO with test compound concentrations ranging from 50 uM to 0 uM. After 20 hours incubation at 37° C. and 5% CO2, luciferase activity was determined using ONE-Glo Luciferase Assay Reagent (E6110, Promega) following the manufacture's recommended procedure. Briefly, 40 uL of ONE-Glo luciferase reagents were added to each well and luciferase signals were measured using an Envision 2102 Multilabel Reader. Percentage maximum activity in each test well was calculated based on DMSO (maximum activity) and no cell control wells (baseline activity). The IC50 values of the test compounds were determined from compound dose response curves fitted using a standard four parameter fit equation.

[1] = target: T2, Histidine tagged HIF-2α protein containing PAS-B domain (240-350) (Homo sapiens, UniProt Q99814); experiment: HIF-2α Scintillation Proximity Assay (SPA); assay type: binding; conditions: 50 nM HIF-2α protein, 25 nM radiolabeled tracer; read-out: HIF-2α Scintillation Proximity Assay
T2 construct: Histidine tagged HIF-2α protein containing PAS-B domain (240-350) was prepared and purified in house; made in house
Description: Tritium labeled compound N-(3-chlorophenyl)-4-nitro-2,1,3-benzoxadiazol-5-amine was obtained from American Radiolabeled Chemicals Inc. and copper chelate PVT SPA beads were from PerkinElmer (Cat #RPNQ0095). Histidine tagged HIF-2α protein containing PAS-B domain (240-350) was prepared and purified in house.
Compounds solubilized in DMSO were dispensed into a white 384-well polystyrene non-binding flat clear bottom plate (Greiner Bio-One, Cat #781903) using an HP D300 dispenser. Ten microliters of HIS-tagged HIF-2α protein in buffer (25 mM Tris-HCl, pH 7.4, 150 mM NaCl, 0.15% BSA and 0.001% Tween 20) was added to the compound wells and allowed to incubate for 1 hour at room temperature. Ten microliters of SPA bead mix were added to the wells and incubated for an additional 45 minutes, followed by 10 ul of ^3H-tracer solution. Final assay conditions comprised 50 nM HIF-2α protein, 25 nM radiolabeled tracer and 3 ug beads per well with compounds in 2% DMSO. The plate was read using a MicroBeta Microplate Counter (PerkinElmer) for luminescence detection. The IC50 values of the test compounds were determined from compound dose response curves fitted using a standard four parameter fit equation and are reported in Table 1.

T2 sequence (Q99814 240-350): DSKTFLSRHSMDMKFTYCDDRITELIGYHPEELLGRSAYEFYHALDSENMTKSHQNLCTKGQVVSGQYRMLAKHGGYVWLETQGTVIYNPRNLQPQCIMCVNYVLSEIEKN
T1 sequence (Q99814 whole entry): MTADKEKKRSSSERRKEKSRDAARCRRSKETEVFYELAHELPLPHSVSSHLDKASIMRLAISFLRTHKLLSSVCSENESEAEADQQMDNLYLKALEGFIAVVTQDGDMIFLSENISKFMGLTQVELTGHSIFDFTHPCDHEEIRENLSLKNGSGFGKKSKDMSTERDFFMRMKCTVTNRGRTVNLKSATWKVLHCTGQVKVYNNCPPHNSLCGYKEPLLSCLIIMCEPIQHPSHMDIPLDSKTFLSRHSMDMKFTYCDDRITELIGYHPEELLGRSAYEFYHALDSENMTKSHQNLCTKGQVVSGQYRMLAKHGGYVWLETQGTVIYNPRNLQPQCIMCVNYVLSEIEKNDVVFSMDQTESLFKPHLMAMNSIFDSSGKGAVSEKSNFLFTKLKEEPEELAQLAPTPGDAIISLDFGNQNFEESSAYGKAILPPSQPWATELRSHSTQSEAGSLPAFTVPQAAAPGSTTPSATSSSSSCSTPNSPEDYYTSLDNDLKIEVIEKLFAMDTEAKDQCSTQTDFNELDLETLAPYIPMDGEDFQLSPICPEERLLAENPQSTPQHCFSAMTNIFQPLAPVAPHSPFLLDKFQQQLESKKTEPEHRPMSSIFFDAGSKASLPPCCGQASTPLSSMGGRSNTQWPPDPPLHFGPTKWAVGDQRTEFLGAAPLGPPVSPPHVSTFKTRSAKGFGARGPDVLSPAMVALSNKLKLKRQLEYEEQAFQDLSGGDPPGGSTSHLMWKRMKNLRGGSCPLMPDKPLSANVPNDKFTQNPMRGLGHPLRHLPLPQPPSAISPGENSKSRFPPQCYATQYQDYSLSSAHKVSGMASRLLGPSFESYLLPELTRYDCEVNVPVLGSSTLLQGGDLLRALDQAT

Structure (SMILES) | IC50 (HIF-2α) | IC50 [1]
O=S(=O)(c1ccc(Oc2cccc(Cl)c2)c2cn[nH]c12)C(F)(F)F [Example 41, 4-(3-Chlorophenoxy)-7-(trifluoromethylsulfonyl)-1H-indazole] | 1 to 10 µM | < 1 µM
O=S(=O)(c1ccc(Oc2ccc(F)c(F)c2)c2cn[nH]c12)C(F)(F)F [Example 37, 4-(3,4-Fifluorophenoxy)-7-(trifluoromethylsulfonyl)-1H-indazole] | 1 to 10 µM | 1 to 10 µM
N#Cc1cc(Oc2ccc(S(=O)(=O)C(F)(F)F)c3[nH]ncc23)cc(C(F)(F)F)c1 [Example 39, 3-(Trifluoromethyl)-5-[[7-(trifluoromethylsulfonyl)-1H-indazol-4-yl]oxy]benzonitrile] | 1 to 10 µM | 1 to 10 µM
O=S(=O)(c1ccc(NCc2ccc(F)cc2F)c2cn[nH]c12)C(F)(F)F [Example 53, N-[(2,4-difluorophenyl)methyl]-7-(trifluoromethylsulfonyl)-1H-indazol-4-amine] | > 10 µM | > 10 µM
CS(=O)(=O)c1ccc(Oc2cc(F)cc(Cl)c2)c2cn[nH]c12 [Example 7, 4-(3-Chloro-5-fluorophenoxy)-7-methanesulfonyl-1H-indazole] | > 10 µM | > 10 µM
O=S(=O)(c1ccc(Oc2ccc(Cl)cc2)c2cn[nH]c12)C(F)(F)F [Example 17, 4-(p-Chlorophenoxy)-7-(trifluoromethylsulfonyl)-1H-indazole] | 1 to 10 µM | > 10 µM
O=S(=O)(c1ccc(Oc2cccc(Cl)c2)c2c(Cl)n[nH]c12)C(F)(F)F [Example 63, 3-Chloro-4-(m-chlorophenoxy)-7-(trifluoromethylsulfonyl)-1H-indazole] | > 10 µM | 1 to 10 µM
O=S(=O)(c1ccc(Oc2cc(F)c(F)c(F)c2)c2cn[nH]c12)C(F)(F)F [Example 30, 7-(Trifluoromethylsulfonyl)-4-(3,4,5-trifluorophenoxy)-1H-indazole] | > 10 µM | 1 to 10 µM
O=S(=O)(c1ccc(NCc2ccccc2F)c2cn[nH]c12)C(F)(F)F [Example 50, N-[(2-Fluorophenyl)methyl]-7-(trifluoromethylsulfonyl)-1H-indazol-4-amine] | > 10 µM | > 10 µM
